Source: patent publication US20140357706A1, “Stearate Compounds” (THE UAB RESEARCH FOUNDATION, priority 2011, published 2014)

Assays:
[1] = test system: MDA-MB-435 human breast cancer cells; test: MDA-MB-435 lung metastasis model, experiment 2 (diet started with chemotherapy after surgery); type: in vivo, mice
Experimental: 3-4 week old female athymic mice were purchased from Harlan Sprague Dawley, Inc. (Indianapolis, Ind.) and were maintained in microisolater cages in pathogen-free facilities. […] The diets were prepared by Harlan-Teklad (Madison, Wis.). The animals were fed ad libitum and the amount of food consumed was recorded. Mice were anesthetized with 3% isoflurane in 2.5% O2 and weighed weekly. All in vivo procedures were approved by the Institutional Animal Care and Use Committee (IACUC), University of Alabama at Birmingham (UAB).
MDA-MB-435 human breast cancer cells (obtained from Dr. Dan Welch; UAB) were grown and maintained in DMEM:F12 supplemented with 5% FBS, 2 mM glutamine, 1 mM sodium pyruvate, 0.2× non-essential amino acids and 1% penicillin/streptomycin (5% CO2). Cells were grown to 80-90% confluence prior to preparation for injection. To detach cells from the plates, cells were washed with PBS and then treated with 3 mM versene. […]
Lungs were placed under the dissecting microscope (Fisher Scientific, Hanover Park, Ill.) for measurement of metastatic tumor size. Tumor size is expressed as an average of the longest and shortest diameter. The tumors were split into three groups according to their sizes (<0.1 cm, small tumor; 0.1-0.2 cm, medium tumor; >0.2 cm, large tumor), and the number of tumors per mouse was counted separately.

lung metastatic tumors = test: Immunohistochemistry of lung metastatic tumors (CD31, Ki67, caspase-3), experiment 2; type: in vivo, mice
Experimental: Paraffin sections were prepared as described previously (21). 5 μm thick sections were cut from the formalin fixed, paraffin embedded tissue blocks and floated onto charged glass slides (Super-Frost Plus, Fisher Scientific, Pittsburgh, Pa.) and dried overnight at 60° C. A hemotoxylin and eosin stained section was obtained from each tissue block. All sections for immunohistochemistry were deparaffinized and hydrated using graded concentrations of ethanol to deionized water.
CD31 immunostaining was done as described previously^(21). Briefly, the tissue sections were subjected to pretreatment with 0.5 M tris buffer (pH 10). All sections were washed gently in deionized water, then transferred in to 0.05 M Tris-based solution in 0.15 M NaCl with 0.1% v/v Triton-X-100, pH 7.6 (TBST). Endogenous peroxidase was blocked with 3% hydrogen peroxide for 10 min. To reduce further nonspecific background staining, slides were incubated with avidin (Jackson ImmunoResearch, West Grove, Pa.) and biotin blocking solutions (Sigma, to St. Louis, Mo.) for 15 min each, and 3% normal goat serum (Sigma, St. Louis, Mo.) for 20 min. All slides were then incubated at 4° C. overnight with rabbit polyclonal antibody against CD31 (1:200 dilution) (Abeam, Cambridge, Mass.). […]
Bioquant® Image Analysis software (Rtm Biometrics, Nashville, Tenn.) was used to evaluate the immunostaining. […] The numbers of positive and negative cells in these hot spots were then counted and averaged at 5 magnification X40. The percentage of cells stained with Ki67 or caspase-3 was subsequently calculated for comparison. For CD31 immunostaining, the MVD was measured based on Weidner's method (37). […] The number of microvessels in these hot spots was counted at magnification X40, and the density was then calculated for comparison. Each positive endothelial cell cluster of immunoreactivity was counted as an individual vessel in addition to the morphologically identifiable vessels with a lumen.

With `CC(=O)O[C@H]1C(=O)[C@@]2(C)[C@H]([C@H](OC(=O)c3ccccc3)[C@]3(O)C[C@H](OC(=O)[C@H](O)[C@@H](NC(=O)c4ccccc4)c4ccccc4)C(C)=C1C3(C)C)[C@]1(OC(C)=O)CO[C@@H]1C[C@@H]2O` [paclitaxel] the “Incidence of lung metastases” value ([1]; PTX vs same diet without PTX, p<0.01, about 20 mg/kg i.p.) was “significantly lower”, the “Number of lung metastases” value ([1]; two-way ANOVA, PTX VS. no PTX, diet VS. control diet) was “significantly reduced” and the Caspase-3 positive cells (lung metastatic tumors; compared to control diet group) was “significantly increased”. For the same molecule, the “Percentage of Ki67 positive cells (proliferation)” value (lung metastatic tumors; two-way ANOVA) was “significantly inhibited” and the “Microvessel density (MVD), CD31” value (lung metastatic tumors; two-way ANOVA, PTX VS. no PTX, diet VS. control diet group) was “decreased the MVD significantly”.
